#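 Results reflect a 48-hour exposure of cells in 96-well plates to compound at five concentrations. TGI denotes the concentration required for complete inhibition of growth.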
# System: UACC-62 melanoma
# Assay: NCI-60 cell line screen, 48 h
row,Compound,TGI [µM]
1,N#Cc1c(-c2ccccc2)[nH]c2ccccc2c1=O,> 100
2,C=CCn1c(=O)n(CC=C)c(=O)n(CC=C)c1=O,> 100
3,CC12CCC(C(=O)OC1=O)C2(C)C (stereo unspecified),> 100
4,CC1(C)c2ccccc2C(=O)C12CCC(=O)CC2,> 100
5,O=C1C(Cl)C(c2ccccc2)N1n1cnc2ccccc2c1=O (stereo unspecified),> 100
6,CN(C)C(=O)OCOC(=O)N(C)C,> 100
7,CCOC(=O)C1=C(Nc2cccc(OC)c2)OCC1=O,> 100
8,CC(=O)OCC1OC(Nc2ncc(-c3ccc(C)cc3)s2)C(OC(C)=O)C(OC(C)=O)C1OC(C)=O (stereo unspecified),> 77.2
9,CCCCN1C=CN2c3nc4cc(C)c(C)cc4n3C(C(=O)OC)=C(C(=O)OC)C12 (stereo unspecified),> 100
10,CCCCCC(C[N+]1(C)CCOCC1)C(=O)/C=C/c1ccccc1 (stereo unspecified),26.6
11,COc1ccc2c(c1)CC[C@@H]1[C@@H]2CC[C@]2(C)C(=O)/C(=C/c3ccc(OC)c(OC)c3)C[C@@H]12,> 100
12,C/C(=C1/CCCC2(N=NCC2c2ccccc2)C1=O)c1ccccc1 (stereo unspecified),47.7
13,CO[C@H]1[C@@H](O)[C@@H](C)O[C@@H](O[C@H]2CC[C@@]3(C)[C@H](CC[C@@H]4[C@@H]3CC[C@]3(C)[C@@H](C5=CC(=O)OC5)[C@@H](OC(C)=O)C[C@]43O)C2)[C@@H]1O,0.215

# System: NCI-H226 lung
# Assay: NCI-60 cell line screen, 48 h
row,Compound,TGI [µM]
1,CN(C)C(=O)NCCN1CCCCCc2ccccc21,> 100
2,Cc1ccc2c(c1CCCC(C)(C)O)C(=O)C(=O)C(C(C)C)=C2O,> 100
3,CCOC(=O)c1nc2c(Cl)c3ncccc3cc2[nH]c1=O,> 100
4,CC1(C#N)CC(C)(C)C(/C=C2/CC(C)(C)C(/C=C3/OC(=N)CC3(C)C)=N2)=N1 (stereo unspecified),> 100
5,CC(=O)Oc1ccccc1-c1cc2ccccc2oc1=O,> 100
6,C=C1C(=O)O[C@H]2[C@H]1[C@@H](OC(=O)C=C(C)C)CC1=C[C@@H](C[C@@]3(C)O[C@@H]23)OC1=O,36.2
7,C[C@]12CCC(=O)C=C1CC[C@@H]1C2CC[C@]2(C)c3nn(-c4ccc(F)cc4)nc3CC12 (stereo partly specified),> 100
8,Cc1ccc2nc(-c3ccc(N)c(I)c3)sc2c1,40.6
9,CCC1c2[nH]c3ccccc3c2C[C@H]2C(=O)NC(COC(C)(C)C)C(=O)N12 (stereo partly specified),> 100
10,O=C1NC(=O)C(CCO)(c2ccccc2)C(=O)N1,> 100
11,Cc1cn(C2CC(ON3C(=O)c4ccccc4C3=O)C(CO)O2)c(=O)[nH]c1=O (stereo unspecified),> 10
12,Cc1ccc(C2CC(c3ccco3)=NN2c2ccccc2)o1 (stereo unspecified),> 100
13,COC(=O)C(=C/c1ccc(OC)cc1)/C(C(=O)O)=C(/C)c1ccccc1,> 100
14,COC(=O)c1ccc(/C=C2\N=C(C)OC2=O)cc1,> 100
15,Nc1ccc(C(=O)NN2C(=O)C(Cl)C2c2ccccc2Cl)cc1 (stereo unspecified),31.5
16,N#Cc1sc2nc(/C=C3/C=CC=CC3=O)c(O)n2c1N,> 100
17,CCN1CCN(c2ccc(Nc3ccnc4ccc5nn(C)nc5c34)cc2)CC1,26.2
18,O=C(O)c1ccc(NNc2cc(=O)[nH]c(=O)[nH]2)cc1,> 100
19,COC(=O)C1OC(Oc2cc(O)c3c(=O)cc(-c4ccc(O)cc4)oc3c2)C(O)C(O)C1O (stereo unspecified),> 100
20,CCN(CC)/C(Cl)=C(Cl)\C(=C1\Nc2ccc(OC)cc21)[N+](=O)[O-],69.2
21,N#Cc1c(-c2ccccc2)[nH]c2ccccc2c1=O,> 100
22,CC12CCC(C(=O)OC1=O)C2(C)C (stereo unspecified),> 100
23,CC1(C)c2ccccc2C(=O)C12CCC(=O)CC2,> 100
24,O=C1C(Cl)C(c2ccccc2)N1n1cnc2ccccc2c1=O (stereo unspecified),> 100
25,CN(C)C(=O)OCOC(=O)N(C)C,> 100
26,CCOC(=O)C1=C(Nc2cccc(OC)c2)OCC1=O,> 100
27,CC(=O)OCC1OC(Nc2ncc(-c3ccc(C)cc3)s2)C(OC(C)=O)C(OC(C)=O)C1OC(C)=O (stereo unspecified),91.4
28,CCCCCC(C[N+]1(C)CCOCC1)C(=O)/C=C/c1ccccc1 (stereo unspecified),25.6
29,C/C(=C1/CCCC2(N=NCC2c2ccccc2)C1=O)c1ccccc1 (stereo unspecified),41.3
30,CO[C@H]1[C@@H](O)[C@@H](C)O[C@@H](O[C@H]2CC[C@@]3(C)[C@H](CC[C@@H]4[C@@H]3CC[C@]3(C)[C@@H](C5=CC(=O)OC5)[C@@H](OC(C)=O)C[C@]43O)C2)[C@@H]1O,0.411

# System: NCI-H23 lung
# Assay: NCI-60 cell line screen, 48 h
row,Compound,TGI [µM]
1,CN(C)C(=O)NCCN1CCCCCc2ccccc21,> 100
2,Cc1ccc2c(c1CCCC(C)(C)O)C(=O)C(=O)C(C(C)C)=C2O,> 100
3,CCOC(=O)c1nc2c(Cl)c3ncccc3cc2[nH]c1=O,> 100
4,CC1(C#N)CC(C)(C)C(/C=C2/CC(C)(C)C(/C=C3/OC(=N)CC3(C)C)=N2)=N1 (stereo unspecified),60.6
5,CC(=O)Oc1ccccc1-c1cc2ccccc2oc1=O,> 100
6,C=C1C(=O)O[C@H]2[C@H]1[C@@H](OC(=O)C=C(C)C)CC1=C[C@@H](C[C@@]3(C)O[C@@H]23)OC1=O,13.5
7,C[C@]12CCC(=O)C=C1CC[C@@H]1C2CC[C@]2(C)c3nn(-c4ccc(F)cc4)nc3CC12 (stereo partly specified),> 100
8,O=c1[nH]cc(COCC(F)(F)C(F)(F)C(F)(F)C(F)F)c(=O)[nH]1,> 100
9,CCC1c2[nH]c3ccccc3c2C[C@H]2C(=O)NC(COC(C)(C)C)C(=O)N12 (stereo partly specified),> 100
10,O=C1NC(=O)C(CCO)(c2ccccc2)C(=O)N1,> 100
11,Cc1cn(C2CC(ON3C(=O)c4ccccc4C3=O)C(CO)O2)c(=O)[nH]c1=O (stereo unspecified),> 10
12,Cc1ccc(C2CC(c3ccco3)=NN2c2ccccc2)o1 (stereo unspecified),> 100
13,COC(=O)C(=C/c1ccc(OC)cc1)/C(C(=O)O)=C(/C)c1ccccc1,> 100
14,COC(=O)c1ccc(/C=C2\N=C(C)OC2=O)cc1,> 100
15,Nc1ccc(C(=O)NN2C(=O)C(Cl)C2c2ccccc2Cl)cc1 (stereo unspecified),24.9
16,CCOC(=O)c1csc(NC(=O)C(C)N2CCCCC2)n1 (stereo unspecified),> 100
17,O=C1c2cc3c(cc2CC12Cc1cc4c(cc1C2=O)CCC4)CCCC3 (stereo unspecified),> 100
18,N#Cc1sc2nc(/C=C3/C=CC=CC3=O)c(O)n2c1N,> 100

row,Compound,TGI [µM]
1,CCN1CCN(c2ccc(Nc3ccnc4ccc5nn(C)nc5c34)cc2)CC1,29.4
2,Cc1cccc2c1Oc1cc(Cl)ccc1C2NC(=O)CCN1CCOCC1 (stereo unspecified),> 100
3,O=C(O)c1ccc(NNc2cc(=O)[nH]c(=O)[nH]2)cc1,> 100
4,COC(=O)C1OC(Oc2cc(O)c3c(=O)cc(-c4ccc(O)cc4)oc3c2)C(O)C(O)C1O (stereo unspecified),> 100
5,CCN(CC)/C(Cl)=C(Cl)\C(=C1\Nc2ccc(OC)cc21)[N+](=O)[O-],> 100
6,C=CCn1c(=O)n(CC=C)c(=O)n(CC=C)c1=O,> 100
7,CC12CCC(C(=O)OC1=O)C2(C)C (stereo unspecified),> 100
8,CC1(C)c2ccccc2C(=O)C12CCC(=O)CC2,> 100
9,O=C1C(Cl)C(c2ccccc2)N1n1cnc2ccccc2c1=O (stereo unspecified),> 100
10,CN(C)C(=O)OCOC(=O)N(C)C,> 100
11,CCOC(=O)C1=C(Nc2cccc(OC)c2)OCC1=O,> 100
12,CC(=O)OCC1OC(Nc2ncc(-c3ccc(C)cc3)s2)C(OC(C)=O)C(OC(C)=O)C1OC(C)=O (stereo unspecified),> 100
13,CCCCN1C=CN2c3nc4cc(C)c(C)cc4n3C(C(=O)OC)=C(C(=O)OC)C12 (stereo unspecified),> 100
14,CCCCCC(C[N+]1(C)CCOCC1)C(=O)/C=C/c1ccccc1 (stereo unspecified),32
15,COc1ccc2c(c1)CC[C@@H]1[C@@H]2CC[C@]2(C)C(=O)/C(=C/c3ccc(OC)c(OC)c3)C[C@@H]12,> 100
16,C/C(=C1/CCCC2(N=NCC2c2ccccc2)C1=O)c1ccccc1 (stereo unspecified),67.5
17,CO[C@H]1[C@@H](O)[C@@H](C)O[C@@H](O[C@H]2CC[C@@]3(C)[C@H](CC[C@@H]4[C@@H]3CC[C@]3(C)[C@@H](C5=CC(=O)OC5)[C@@H](OC(C)=O)C[C@]43O)C2)[C@@H]1O,0.139

# System: CAKI-1 renal
# Assay: NCI-60 cell line screen, 48 h
row,Compound,TGI [µM]
1,CN(C)C(=O)NCCN1CCCCCc2ccccc21,> 100
2,Cc1ccc2c(c1CCCC(C)(C)O)C(=O)C(=O)C(C(C)C)=C2O,> 100
3,CCOC(=O)c1nc2c(Cl)c3ncccc3cc2[nH]c1=O,> 100
4,CC1(C#N)CC(C)(C)C(/C=C2/CC(C)(C)C(/C=C3/OC(=N)CC3(C)C)=N2)=N1 (stereo unspecified),> 100
5,C=C1C(=O)O[C@H]2[C@H]1[C@@H](OC(=O)C=C(C)C)CC1=C[C@@H](C[C@@]3(C)O[C@@H]23)OC1=O,9.11
6,C[C@]12CCC(=O)C=C1CC[C@@H]1C2CC[C@]2(C)c3nn(-c4ccc(F)cc4)nc3CC12 (stereo partly specified),> 100
7,Cc1ccc2nc(-c3ccc(N)c(I)c3)sc2c1,> 100
8,O=c1[nH]cc(COCC(F)(F)C(F)(F)C(F)(F)C(F)F)c(=O)[nH]1,> 100
9,CCC1c2[nH]c3ccccc3c2C[C@H]2C(=O)NC(COC(C)(C)C)C(=O)N12 (stereo partly specified),> 100
10,COC(=O)C(=C/c1ccc(OC)cc1)/C(C(=O)O)=C(/C)c1ccccc1,> 100
11,COC(=O)c1ccc(/C=C2\N=C(C)OC2=O)cc1,> 100
12,Nc1ccc(C(=O)NN2C(=O)C(Cl)C2c2ccccc2Cl)cc1 (stereo unspecified),26.9
13,CCOC(=O)c1csc(NC(=O)C(C)N2CCCCC2)n1 (stereo unspecified),> 100
14,O=C1c2cc3c(cc2CC12Cc1cc4c(cc1C2=O)CCC4)CCCC3 (stereo unspecified),> 100
15,N#Cc1sc2nc(/C=C3/C=CC=CC3=O)c(O)n2c1N,> 100
16,CCN1CCN(c2ccc(Nc3ccnc4ccc5nn(C)nc5c34)cc2)CC1,29
17,COC(=O)C1OC(Oc2cc(O)c3c(=O)cc(-c4ccc(O)cc4)oc3c2)C(O)C(O)C1O (stereo unspecified),> 100
18,CCN(CC)/C(Cl)=C(Cl)\C(=C1\Nc2ccc(OC)cc21)[N+](=O)[O-],> 100
19,N#Cc1c(-c2ccccc2)[nH]c2ccccc2c1=O,> 100
20,CC1(C)c2ccccc2C(=O)C12CCC(=O)CC2,> 100
21,O=C1C(Cl)C(c2ccccc2)N1n1cnc2ccccc2c1=O (stereo unspecified),> 100
22,CN(C)C(=O)OCOC(=O)N(C)C,> 100
23,CCOC(=O)C1=C(Nc2cccc(OC)c2)OCC1=O,> 100
24,CC(=O)OCC1OC(Nc2ncc(-c3ccc(C)cc3)s2)C(OC(C)=O)C(OC(C)=O)C1OC(C)=O (stereo unspecified),> 81.1
25,CCCCN1C=CN2c3nc4cc(C)c(C)cc4n3C(C(=O)OC)=C(C(=O)OC)C12 (stereo unspecified),> 100
26,CCCCCC(C[N+]1(C)CCOCC1)C(=O)/C=C/c1ccccc1 (stereo unspecified),32.1
27,COc1ccc2c(c1)CC[C@@H]1[C@@H]2CC[C@]2(C)C(=O)/C(=C/c3ccc(OC)c(OC)c3)C[C@@H]12,> 100
28,CO[C@H]1[C@@H](O)[C@@H](C)O[C@@H](O[C@H]2CC[C@@]3(C)[C@H](CC[C@@H]4[C@@H]3CC[C@]3(C)[C@@H](C5=CC(=O)OC5)[C@@H](OC(C)=O)C[C@]43O)C2)[C@@H]1O,0.0719

# Source: PubChem BioAssay (NCI)
